For experiment [1], the target named is mitochondrial RNA polymerase (POLRMT) (Mus musculus, UniProt Q8BKF1). Put plainly: Homogeneous TR-FRET assay for mitochondrial transcription activity. The experiment is classed as biochemical. To be noted: homogeneous TR-FRET assay according to Example 4. The text has this: The TR-FRET assay was basically conducted as described in WO2016/193231A1, especially as described in example 1 (hereby incorporated by reference). With respect to the back ground of the mitochondrial transcription it is referred to Falkenberg et al. (2002) and Posse et al. (Posse et al., 2015). The method monitors the activity of mitochondrial RNA-polymerase via detection of the formation of its product, a 407 bp long RNA sequence. Detection of the product is facilitated by hybridization of two DNA-oligonucleotide probes to specific and adjacent sequences within the RNA product sequence. Upon annealing of the probes, two fluorophores that are coupled directly to an acceptor nucleotide probe (ATT0647, 5′) or introduced via a coupled streptavidin interacting with a biotinylated donor nucleotide probe on the other side (Europium cryptate, 3′) are brought into sufficient proximity to serve as a fluorescence-donor-acceptor pair as generally described in Walters and Namchuk (2003). Thus, a FRET signal at 665 nm is generated upon excitation at 340 nm.
Briefly, the protocol described here was applied for screening and activity determination in a low-volume 384-well microtiter plate with non-binding surface. For high-throughput application in the 1536-well microtiter plate format, volumes of the reagent mixes were adjusted, maintaining the volumetric ratio. Proteins POLRMT (NM_172551.3), TFAM (NM_009360.4) and TFB2M (NM_008249.4) were diluted from their stocks to working concentrations of 150 nM, 1.8 μM and 330 nM respectively, in a dilution buffer containing 100 mM Tris-HCl pH 8.0, 200 mM NaCl, 10% (v/v) glycerole, 2 mM glutathione (GSH), 0.5 mM EDTA and 0.1 mg/mL BSA. Protein dilutions and template DNA, comprising a pUC18 plasmid encoding the mitochondrial light strand promoter, restriction linearized proximal to the promoter 3′-end (pUC-LSP), were mixed at the twofold final assay-concentration in a reaction buffer, containing 10 mM Tris-HCl pH 7.5, 10 mM MgCl2, 40 mM NaCl, 2 mM GSH, 0.01% (w/v) Tween-20 and 0.1 mg/mL BSA.
5 μL of this mix were dispensed, depending on the chosen microtiter plate format, using multi-channel pipettes or a Multidrop® dispenser (Thermo Fisher Scientific, Waltham Mass.) into the wells of a microtiter plate and incubated at room temperature (rt) for 10 min. Chemical compounds under scrutiny in the assay were applied using contact-free acoustic droplet-dispensing (Echo520® Labcyte Inc., Sunnyvale Calif.) from 10 mM compound stocks in 100% DMSO, to a final concentration of 10 μM or in serial dilution series of the required concentration range. Equal amounts of DMSO without any compound were added to positive control samples, followed by an incubation step at rt for 10 min.
The enzymatic reaction was started by the addition of 5 μL of a mix of dNTPs in reaction buffer to a final concentration of 500 μM each. No nucleotide mix was added to negative control samples. The content of the wells was mixed using a VarioTeleshaker™ (Thermo Fisher Scientific, Waltham Mass.) at 1500 rpm for 45 sec after which the microtiter plate was centrifuged at 500×g for 1 min. The samples were incubated for 2 h at rt with humidity control to avoid evaporation. The detection reagents were prepared in a buffer that was composed, such that the enzymatic reaction was terminated due to chelating of Mg-ions and increased ionic strength, containing 50 mM Tris-HCl pH 7.5, 700 mM NaCl, 20 mM EDTA, and 0.01% (w/v) Tween-20. Importantly Eu-cryptate-coupled streptavidin had to be preincubated with a 100-fold molar excess of a random sequence oligonucleotide for 10 min at rt in the dark to block unspecific binding of single stranded RNA to the protein. Subsequently, the blocked streptavidin(-Eu) was mixed with the DNA-probes on ice and kept away from light until use. […]

The subject of experiment [2] is mitochondrial transcription (7S RNA) in HeLa cells. As to the kind of experiment: Quantitative real time-PCR assay of inhibition of mitochondrial transcription (7S RNA) in HeLa cells. The experiment is classed as cell-based. The conditions noted are these: Homo sapiens, 4 h compound incubation, according to Example 5, read-out: cellular qPCR assay. As for the experimental part: Quantitative real-time PCR (qRT-PCR), based on the TaqMan™ (Thermo Fisher Scientific, Waltham Mass.) technology, was carried out essentially as described in Held et al. (1996). HeLa cells were plated one day before compound treatment in RPMI medium supplemented with 10% Fetal Calf Serum and 2 mM L-glutamine. Cells were incubated with dilution series of compounds or vehicle (DMSO) for 4 h, prior to harvest and extraction of the RNA using the RNeasy Mini Kit (Qiagen, Hilden D), according to the manufacturer's instructions. RNA concentrations were measured spectroscopically, using a NanoDrop-2000 (Thermo Fisher Scientific, Waltham Mass.) and normalized prior to cDNA synthesis, using a ‘High-Capacity cDNA Reverse Transcription Kit’ (Thermo Fisher Scientific, Waltham Mass.). qRT-PCR was carried out using the ‘TaqMan Fast Advance Master Mix’ (Thermo Fisher Scientific, Waltham Mass.) on a 7500 Fast Real-Time PCR machine (Applied Biosystems, Foster City Calif.)
For these measurements, three genes were used to compare the effect of the scrutinized compounds in relation to their concentration. The POLRMT-gene was used to detect potential influences on nuclear transcription. Mitochondrial transcription in vivo was monitored by measurements 7S RNA. The TBP (TATA-box binding protein) gene was employed as the control (housekeeping gene) during qRT-PCR. The short-lived mitochondrial 7S RNA, which is not post-transcriptionally stabilized, allowed us to monitor rapid changes in mitochondrial transcription activity following compound addition. Biological triplicates were analyzed using the comparative CT Method (ΔΔCt) method (Bubner and Baldwin, 2004) and reported as Rq % values (Rq=Relative quantification=2−ΔΔCt).
A general note: In qPCR the cycle at which signal appears reflects the starting amount.

Drawing on patent US12281079B2, “Quinoline derivatives, processes for their preparation and uses thereof for the treatment of cancer” (Lead Discovery Center GmbH, priority 2019, dated 2025), this text covers IC50 for 17 compounds.

Bounds are passed on as bounds.

Chain of mitochondrial RNA polymerase (POLRMT) (Q8BKF1 42-1207): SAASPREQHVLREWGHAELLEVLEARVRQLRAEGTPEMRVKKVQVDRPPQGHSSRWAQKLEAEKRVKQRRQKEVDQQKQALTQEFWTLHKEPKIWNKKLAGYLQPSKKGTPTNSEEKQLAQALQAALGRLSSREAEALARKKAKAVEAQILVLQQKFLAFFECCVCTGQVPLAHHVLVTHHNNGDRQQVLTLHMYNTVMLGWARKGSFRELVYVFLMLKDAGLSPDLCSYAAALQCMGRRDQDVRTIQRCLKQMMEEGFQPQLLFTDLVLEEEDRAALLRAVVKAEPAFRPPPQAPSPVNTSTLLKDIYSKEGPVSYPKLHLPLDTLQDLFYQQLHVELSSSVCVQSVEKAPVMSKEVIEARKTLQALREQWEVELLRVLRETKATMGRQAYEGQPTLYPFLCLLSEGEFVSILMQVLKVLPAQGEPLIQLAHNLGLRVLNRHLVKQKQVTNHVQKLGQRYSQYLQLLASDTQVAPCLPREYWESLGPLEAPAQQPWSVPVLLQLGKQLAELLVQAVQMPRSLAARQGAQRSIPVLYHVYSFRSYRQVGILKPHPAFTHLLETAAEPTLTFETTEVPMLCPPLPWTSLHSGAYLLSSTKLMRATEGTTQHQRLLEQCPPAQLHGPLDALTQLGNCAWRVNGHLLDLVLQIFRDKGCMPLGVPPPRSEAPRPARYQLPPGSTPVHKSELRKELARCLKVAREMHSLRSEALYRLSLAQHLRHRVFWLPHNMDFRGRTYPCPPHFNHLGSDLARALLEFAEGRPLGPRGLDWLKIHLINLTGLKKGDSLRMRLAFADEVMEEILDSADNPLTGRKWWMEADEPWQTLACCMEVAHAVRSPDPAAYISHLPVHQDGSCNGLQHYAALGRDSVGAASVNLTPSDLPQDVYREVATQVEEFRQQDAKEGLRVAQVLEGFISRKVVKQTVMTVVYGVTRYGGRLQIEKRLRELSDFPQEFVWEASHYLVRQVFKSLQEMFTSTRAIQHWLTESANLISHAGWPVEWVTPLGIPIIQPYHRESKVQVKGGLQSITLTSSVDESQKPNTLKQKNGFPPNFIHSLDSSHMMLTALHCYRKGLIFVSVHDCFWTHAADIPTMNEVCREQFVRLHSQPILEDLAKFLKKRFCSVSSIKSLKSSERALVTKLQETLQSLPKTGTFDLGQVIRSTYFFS

Turning to `Cc1cc(F)cc(C)c1-c1ccnc2cc(O[C@H](C)C(=O)N3CCCC4(CC4C(=O)O)C3)ccc12` (mixture of isomers) [Compound 174, 5-[rac-(2R)-2-[[4-(4-fluoro-2,6-dimethyl-phenyl)-7-quinolyl]oxy]propanoyl]-5-azaspiro[2.5]octane-2-carboxylic acid], the IC50 in experiment [1] was < 20 nM; in experiment [2], < 10 nM. For `C[C@@H](Oc1ccc2c(-c3c(Cl)cc(F)cc3Cl)ccnc2c1)C(=O)N1CCCC(C2(C(=O)O)CC2)C1` (mixture of isomers) [Compound 196, 1-[1-[rac-(2R)-2-[[4-(2,6-dichloro-4-fluoro-phenyl)-7-quinolyl]oxy]propanoyl]-3-piperidyl]cyclopropanecarboxylic acid], the IC50 was in the range of 20 to 100 nM in experiment [1] and 10 to 50 nM in experiment [2].

For the compound `C[C@@H](Oc1ccc2c(-c3ccc(F)cc3Cl)ccnc2c1)C(=O)N1CCCC(S(N)(=O)=O)C1` (mixture of isomers) [Compound 33, 1-[rac-(2R)-2-[[4-(2-chloro-4-fluoro-phenyl)-7-quinolyl]oxy]propanoyl]piperidine-3-sulfonamide], the figures for the IC50 in experiment [1] and in experiment [2] were 100 to 1000 nM and < 10 nM, respectively. For `CC(Oc1ccc2c(-c3ccc(F)cc3Cl)ccnc2n1)C(=O)N1CCC[C@H](C(=O)O)C1` (mixture of isomers) [Compound 62, (3S)-1-[2-[[5-(2-chloro-4-fluoro-phenyl)-1,8-naphthyridin-2-yl]oxy]propanoyl]piperidine-3-carboxylic acid], in that order: 100 to 1000 nM and 10 to 50 nM. On to `CC(Oc1ccc2c(-c3ccc(F)cc3Cl)ccnc2n1)C(=O)N1CCC[C@H](CC(=O)O)C1` (mixture of isomers) [Compound 80, 2-[rac-(3R)-1-[2-[[5-(2-chloro-4-fluoro-phenyl)-1,8-naphthyridin-2-yl]oxy]propanoyl]-3-piperidyl]acetic acid], for which the values for the IC50 in experiment [1] and in experiment [2] were 1000 to 10000 nM and 50 to 500 nM, respectively.

On to `Cc1cccc(C)c1-c1ccnc2cc(O[C@H](C)C(=O)N3CCCC(S(N)(=O)=O)C3)ccc12` (mixture of isomers) [Compound 119, 1-[rac-(2R)-2-[[4-(2,6-dimethylphenyl)-7-quinolyl]oxy]propanoyl]piperidine-3-sulfonamide], for which the IC50 in experiment [1] was < 20 nM; in experiment [2], < 10 nM.

For `C[C@@H](Oc1ccc2c(-c3ccc(F)cc3Cl)ccnc2c1)C(=O)N1CCCC(CS(N)(=O)=O)C1` (mixture of isomers) [Compound 123, [1-[rac-(2R)-2-[[4-(2-chloro-4-fluoro-phenyl)-7-quinolyl]oxy]propanoyl]-3-piperidyl]methanesulfonamide], the IC50 in experiment [1] was 100 to 1000 nM; in experiment [2], 50 to 500 nM. For the compound `C[C@@H](Oc1ccc2c(-c3c(Cl)cc(F)cc3Cl)ccnc2c1)C(=O)N1CCCC2(CC2C(=O)O)C1` (mixture of isomers) [Compound 177, 5-[rac-(2R)-2-[[4-(2,6-dichloro-4-fluoro-phenyl)-7-quinolyl]oxy]propanoyl]-5-azaspiro[2.5]octane-2-carboxylic acid], the IC50 in experiment [1] is < 20 nM; in experiment [2] it was < 10 nM. As for `Cc1cc(F)cc(C)c1-c1ccnc2cc(O[C@H](C)C(=O)N3CCCC(C4(O)CC4)C3)ccc12` (mixture of isomers) [Compound 180, rac-(2R)-2-[[4-(4-fluoro-2,6-dimethyl-phenyl)-7-quinolyl]oxy]-1-[3-(1-hydroxycyclopropyl)-1-piperidyl]propan-1-one], the IC50 in experiment [1] was < 20 nM; in experiment [2] it was < 10 nM.

For `Cc1cc(F)cc(C)c1-c1ccnc2cc(O[C@H](C)C(=O)N3CCCC(C4(C(=O)O)CC4)C3)ccc12` (mixture of isomers) [Compound 182, 1-[1-[rac-(2R)-2-[[4-(4-fluoro-2,6-dimethyl-phenyl)-7-quinolyl]oxy]propanoyl]-3-piperidyl]cyclopropanecarboxylic acid], the IC50 in experiment [1] was < 20 nM; in experiment [2], < 10 nM. For `Cc1cc(F)cc(C)c1-c1ccnc2cc(O[C@H](C)C(=O)N3CCCC(C(C)(C)C(=O)O)C3)ccc12` (mixture of isomers) [Compound 186, 2-methyl-2-[1-[rac-(2R)-2-[[4-(4-fluoro-2,6-dimethyl-phenyl)-7-quinolyl]oxy]propanoyl]-3-piperidyl]propanoic acid], in that order: < 20 nM and < 10 nM. For the compound `Cc1cc(F)cc(C)c1-c1ccnc2cc(O[C@H](C)C(=O)N3C(C)CCCC3C)ccc12` (mixture of isomers) [Compound 191, rac-(2R)-1-(2,6-dimethyl-1-piperidyl)-2-[[4-(4-fluoro-2,6-dimethyl-phenyl)-7-quinolyl]oxy]propan-1-one], the IC50 in experiment [1] was < 20 nM; in experiment [2], < 10 nM. As to `C[C@@H](Oc1ccc2c(-c3c(C(F)(F)F)cccc3C(F)(F)F)ccnc2c1)C(=O)N1CCC[C@H](CC(=O)O)C1` [Compound 151, 2-[(3R)-1-[(2R)-2-[[4-[2,6-bis(trifluoromethyl)phenyl]-7-quinolyl]oxy]propanoyl]-3-piperidyl]acetic acid], the IC50 in experiment [1] lay within 1000 to 10000 nM. Still for that read-out and setting: the value for `COc1cccc(Cl)c1-c1ccnc2cc(O[C@H](C)C(=O)N3CCC[C@H](CC(=O)O)C3)ccc12` [Compound 152, 2-[(3R)-1-[(2R)-2-[[4-(2-chloro-6-methoxy-phenyl)-7-quinolyl]oxy]propanoyl]-3-piperidyl]acetic acid] was 1000 to 10000 nM; that for `Cc1cccc(C)c1-c1ccnc2cc(O[C@H](C)C(=O)N3CCC[C@@H](S(N)(=O)=O)C3)ccc12` [Compound 172, (3R)-1-[(2R)-2-[[4-(2,6-dimethylphenyl)-7-quinolyl]oxy]propanoyl]piperidine-3-sulfonamide] was < 20 nM. In experiment [1], `C[C@@H](Oc1ccc2c(-c3ccc(F)cc3Cl)ccnc2c1)C(=O)N1C[C@H]2C[C@@H]1CN2` [Compound 217, (2R)-2-[[4-(2-chloro-4-fluoro-phenyl)-7-quinolyl]oxy]-1-[(1R)-2,5-diazabicyclo[2.2.1]heptan-2-yl]propan-1-one] showed an IC50 of 1000 to 10000 nM. In turn, `C[C@@H](Oc1ccc2c(-c3ccc(F)cc3Cl)ccnc2c1)C(=O)N1CC2(COC2)C1` [Compound 218, (2R)-2-[[4-(2-chloro-4-fluoro-phenyl)-7-quinolyl]oxy]-1-(2-oxa-6-azaspiro[3.3]heptan-6-yl)propan-1-one] returned an IC50 in experiment [1] of 1000 to 10000 nM.
